# Results: PMC10682101, “In vitro pharmacological characterization of standard and new lysophosphatidic acid receptor antagonists using dynamic mass redistribution assay” (Frontiers in Pharmacology, 2023)
# “Also recorded” adds a separate entry of the source.
# Tests used:
# [1] = target: T1, human LPA2 receptor (Homo sapiens, UniProt Q9HBW0); assay: Dynamic mass redistribution (DMR) assay in CHOLPA2 cells; settings: for DMR response: CHOLPA2 cells; for DMR effect per se: concentration–response up to highest concentration tested; for Agonism Emax / Agonism pEC50: negative DMR signal, peak, up to 10 µM (compound 35 up to 1 µM), °inactive at 10 μM
# T1 sequence (Q9HBW0 whole entry): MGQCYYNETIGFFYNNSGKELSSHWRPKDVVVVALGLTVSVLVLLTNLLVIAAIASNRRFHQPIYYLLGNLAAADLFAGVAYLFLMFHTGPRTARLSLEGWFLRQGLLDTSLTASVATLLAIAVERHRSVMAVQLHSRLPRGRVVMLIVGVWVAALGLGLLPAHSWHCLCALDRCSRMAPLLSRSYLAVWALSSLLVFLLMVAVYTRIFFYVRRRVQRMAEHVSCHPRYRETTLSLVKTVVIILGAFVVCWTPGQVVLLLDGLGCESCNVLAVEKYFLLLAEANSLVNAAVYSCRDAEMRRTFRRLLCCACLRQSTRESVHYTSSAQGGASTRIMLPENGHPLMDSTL
# Protocol: Confluent cells were sub-cultured using trypsin/EDTA and used for experiments. Cells were seeded at a density of 20,000 cells/well in 30 µL into fibronectin-coated EnspireTM-LC 384-well plates and cultured for 20 h to form a confluent monolayer. On the day of the experiment, the cells were manually washed twice and maintained with assay buffer (HBSS with 20 mM HEPES, 0.01% BSA) for 90 min before DMR experiments. DMR was monitored in real time with a temporal resolution of 44 s throughout the assay. Experiments were performed at 37°C using an EnSight Multimode Plate Reader (PerkinElmer). The agonism protocol was as follows: before addition of the ligand, the DMR signal was measured for 5 min, and the average of the signals recorded during this period was set as the baseline (pm = 0). Compounds are added manually in a volume of 10 µL, and the triggered DMR signals were recorded for 60 min. […] Responses were described in the form of picometer shift over time (seconds) following the subtraction of values from vehicle-treated wells. Maximum picometer (pm) modification (peak) and area under the curve (AUC) were used to determine the agonist response.
# All data were analyzed using GraphPad Prism 9.4 (La Jolla, CA, United States). Concentration–response curves were fitted using the four-parameter log-logistic equation. Data are expressed in the form mean ± s.e.m. across n experiments performed in duplicate. […] In practice, equiactive concentrations of the agonist in the absence ([A]) and presence ([A’]) of a non-competitive antagonist ([B]) were compared in a double reciprocal plot describing a straight line, and pKB was derived from the equation: pKB = log[(slope—1)/[B]]. […] Maximal effect data were analyzed using the Student’s t-test or a one-way ANOVA followed by Dunnett’s post-hoc test.
# [2] = target: T2, human LPA1 receptor (Homo sapiens, UniProt Q92633); assay: Dynamic mass redistribution (DMR) assay in CHOLPA1 cells; settings: for DMR response: CHOLPA1 cells; for Shift of the concentration–response curve to LPA: antagonism protocol
# T2 sequence (Q92633 whole entry): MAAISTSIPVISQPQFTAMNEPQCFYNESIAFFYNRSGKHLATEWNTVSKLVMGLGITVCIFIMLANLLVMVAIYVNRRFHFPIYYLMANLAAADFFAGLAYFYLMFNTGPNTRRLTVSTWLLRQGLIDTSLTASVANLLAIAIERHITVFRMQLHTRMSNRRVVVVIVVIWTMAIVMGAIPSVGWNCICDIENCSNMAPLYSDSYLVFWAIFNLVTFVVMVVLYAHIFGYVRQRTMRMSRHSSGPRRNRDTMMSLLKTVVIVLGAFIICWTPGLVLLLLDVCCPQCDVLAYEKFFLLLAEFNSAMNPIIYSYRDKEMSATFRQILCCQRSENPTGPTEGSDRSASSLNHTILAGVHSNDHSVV
# Protocol: All data were analyzed using GraphPad Prism 9.4 (La Jolla, CA, United States). Concentration–response curves were fitted using the four-parameter log-logistic equation. Data are expressed in the form mean ± s.e.m. across n experiments performed in duplicate. Agonist potency is expressed in the form pEC50, which is the negative logarithm to base 10 of the agonist molar concentration that produces 50% of the maximal possible effect of that agonist. […] In practice, equiactive concentrations of the agonist in the absence ([A]) and presence ([A’]) of a non-competitive antagonist ([B]) were compared in a double reciprocal plot describing a straight line, and pKB was derived from the equation: pKB = log[(slope—1)/[B]]. […] Maximal effect data were analyzed using the Student’s t-test or a one-way ANOVA followed by Dunnett’s post-hoc test.
# [3] = test system: CHO wild-type cells; assay: DMR assay in CHO wild-type cells (control); type: cell-based; settings: CHO cells
# Protocol: Confluent cells were sub-cultured using trypsin/EDTA and used for experiments. Cells were seeded at a density of 20,000 cells/well in 30 µL into fibronectin-coated EnspireTM-LC 384-well plates and cultured for 20 h to form a confluent monolayer. On the day of the experiment, the cells were manually washed twice and maintained with assay buffer (HBSS with 20 mM HEPES, 0.01% BSA) for 90 min before DMR experiments. DMR was monitored in real time with a temporal resolution of 44 s throughout the assay. Experiments were performed at 37°C using an EnSight Multimode Plate Reader (PerkinElmer). The agonism protocol was as follows: before addition of the ligand, the DMR signal was measured for 5 min, and the average of the signals recorded during this period was set as the baseline (pm = 0). Compounds are added manually in a volume of 10 µL, and the triggered DMR signals were recorded for 60 min. The antagonism protocol was as follows: antagonists were added manually 25 min before reading the 5 min baseline. […] Responses were described in the form of picometer shift over time (seconds) following the subtraction of values from vehicle-treated wells. Maximum picometer (pm) modification (peak) and area under the curve (AUC) were used to determine the agonist response.
# [4] = target: T1, human LPA2 receptor; assay: Calcium mobilization assay in CHOLPA2 cells; settings: CHOLPA2, calcium mobilization; for Effect per se / Shift of the concentration–response curve to LPA: 1 µM; for Effect per se: data not shown; for Agonism Emax / Agonism pEC50: #inactive at 1 μM; for Shift of the concentration–response curve to LPA: antagonism protocol
# [5] = target: T2, human LPA1 receptor; assay: Calcium mobilization assay in CHOLPA1 cells; settings: for Effect per se: 1 µM, data not shown; for Shift of the concentration–response curve to LPA: antagonism protocol (compound 35, compound 20 at 1 µM)
# [6] = test system: LPA1; parameters: method as in Cheng et al., 2021; settings: LPA1 antagonist, calcium mobilization; ref Cheng et al., 2021; cited from earlier work
# [7] = parameters: method as in Palmer et al., 2018; settings: patients with idiopathic pulmonary fibrosis, ref Palmer et al., 2018, cited from earlier work
# [8] = target: LPA2 receptor; parameters: method as in Beck et al., 2008; settings: ref Beck et al., 2008, cited from earlier work
# [9] = CHOLPA1, calcium mobilization, *inactive at 0.1 µM
# [10] = CHOLPA1, calcium mobilization, #inactive at 1 μM
compound,measurement,setting,value
Nc1ncnc2c1ncn2[C@@H]1O[C@H](COP(=O)(O)OP(=O)(O)OP(=O)(O)O)[C@@H](O)[C@H]1O [ATP],DMR response,[1]; ATP 100 μM,96 ± 13 pm
same,DMR response,[2]; ATP 100 μM,84 ± 6 pm
same,DMR response,[3]; ATP 100 μM,156 ± 11 pm
Cc1noc(-c2ccc(-c3ccc(C4(C(=O)O)CC4)cc3)cc2)c1NC(=O)O[C@H](C)c1ccccc1 [BMS-986020],DMR effect per se,"[1]; CHOLPA2, DMR","inactive per se, or slightly active only at the higher concentration tested"
same,Agonism Emax,"[1]; CHOLPA2, DMR",Crc incomplete
same,Agonism pEC50,"[1]; CHOLPA2, DMR",Crc incomplete
same,DMR response,"[1]; compound 10 μM, mean ± s.e.m.",−79 ± 18 pm
same,Kb,[2],79.4 nM
same,EC50,"[2]; Agonism pEC50, CHOLPA1, DMR, negative DMR signal (inverse agonism), peak, up to 10 µM (compound 35 up to 1 µM), °inactive at 10 μM",87.1 nM
same,Shift of the concentration–response curve to LPA,"[2]; CHOLPA1, DMR, 1 µM",shifted the concentration–response curve to LPA to the right
same,Effect on LPA maximal effect,"[2]; CHOLPA1, DMR, tested as antagonist, 1 µM",produced a reduction in LPA maximal effect; also recorded: slight but statistically significant reduction in LPA maximal effect
same,DMR response,"[2]; compound 10 μM, mean ± s.e.m.",−134 ± 28 pm
same,Effect per se,[4],did not produce any effect per se
same,Agonism Emax,[4],Inactive^#
same,Agonism pEC50,[4],Inactive^#
same,Shift of the concentration–response curve to LPA,[4],shifted the concentration–response curve to LPA to the right
same,Effect per se,"[5]; CHOLPA1, calcium mobilization",did not produce any effect per se
same,Agonism Emax,[5]; [9],Inactive*
same,Agonism pEC50,[5]; [9],Inactive*
same,Shift of the concentration–response curve to LPA,"[5]; CHOLPA1, calcium mobilization",shifted the concentration–response curve to LPA to the right
same,Effect on LPA maximal effect,"[5]; CHOLPA1, calcium mobilization, tested as antagonist",produced a reduction in LPA maximal effect
same,pKB,[6],~8
same,DMR response,"[3]; compound 10 μM, mean ± s.e.m.",−39 ± 17 pm
same,Rate of decline in forced vital capacity,[7]; compared with placebo,slower rate of decline in forced vital capacity
same,Cholecystitis,[7]; study interrupted,three cases of cholecystitis
same,Hepatic enzymes,[7]; study interrupted,elevation in hepatic enzymes
Cc1csc2c(N[C@@H](C)CN3CCN(S(=O)(=O)c4ccc(Cl)c(Cl)c4)CC3)ncnc12 [Compound 35],Shift of the concentration–response curve to LPA,"[1]; CHOLPA2, DMR, antagonism protocol, 1 µM",shifted the concentration–response curve to LPA to the right
same,DMR effect per se,"[1]; CHOLPA2, DMR","inactive per se, or slightly active only at the higher concentration tested"
same,Agonism Emax,"[1]; CHOLPA2, DMR",Crc incomplete
same,Agonism pEC50,"[1]; CHOLPA2, DMR",Crc incomplete
same,DMR response,[1]; compound 35 1 μM,−88 ± 6 pm
same,Shift of the concentration–response curve to LPA,"[2]; CHOLPA1, DMR, 1 µM",did not shift the concentration–response curve to LPA to the right
same,Agonism pEC50,"[2]; CHOLPA1, DMR, negative DMR signal (inverse agonism), peak, up to 10 µM (compound 35 up to 1 µM), °inactive at 10 μM",Crc incomplete
same,Agonism Emax,"[2]; CHOLPA1, DMR, negative DMR signal, peak, up to 10 µM (compound 35 up to 1 µM), °inactive at 10 μM",Crc incomplete
same,DMR effect per se,"[2]; CHOLPA1, DMR, up to highest concentration tested (10 μM; compound 35 1 µM)",only a slight negative signal at the highest concentration tested
same,DMR response,[2]; compound 35 1 μM,−101 ± 10 pm
same,Effect per se,[4],did not produce any effect per se
same,Agonism Emax,[4],Inactive^#
same,Agonism pEC50,[4],Inactive^#
same,Shift of the concentration–response curve to LPA,[4],shifted the concentration–response curve to LPA to the right
same,Kb,"[5]; Antagonism pKB/pA2, CHOLPA1, calcium mobilization, LPA curve in absence and presence of 1 µM compound",> 1000 nM
same,Effect per se,"[5]; CHOLPA1, calcium mobilization",did not produce any effect per se
same,Agonism Emax,[5]; [10],Inactive^#
same,Agonism pEC50,[5]; [10],Inactive^#
same,Shift of the concentration–response curve to LPA,"[5]; CHOLPA1, calcium mobilization",did not shift the concentration–response curve to LPA to the right
same,DMR response,[3]; compound 35 1 μM,−27 ± 13 pm
same,pIC50,"[8]; inhibition of stimulant activity of LPA on Ca2+ mobilization, LPA2-transfected cells",7.77
same,Selectivity for LPA2 vs. LPA1 and LPA3 receptors,[8],highly selective
